From article PMC7792806, “Development of Second Generation Activity-Based Chemical Probes for Sirtuins” (Molecules, 2020)

Experiments:
[1] = target: T1, SIRT5 (Homo sapiens, UniProt Q9NXA8); assay: Labeling of SIRT5 in partially purified recombinant sirtuin mixture and peptide competition; type: biochemical; settings: 500 μM NAD+, increasing concentrations of probe, 20 min irradiation
T1 construct: SIRT5 (34-302); made in house
T1 sequence (Q9NXA8 34-302): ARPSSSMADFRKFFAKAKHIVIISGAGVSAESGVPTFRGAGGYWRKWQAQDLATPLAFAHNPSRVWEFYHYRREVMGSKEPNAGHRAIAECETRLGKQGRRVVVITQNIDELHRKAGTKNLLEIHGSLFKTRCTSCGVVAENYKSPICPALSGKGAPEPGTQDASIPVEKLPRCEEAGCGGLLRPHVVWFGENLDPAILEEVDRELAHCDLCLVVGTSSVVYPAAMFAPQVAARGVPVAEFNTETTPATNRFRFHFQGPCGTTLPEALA
Source text: Probe 2B, being a selective SIRT5 inhibitor, was also selective for SIRT5 in the labeling experiments. […] The on-target effect of probe 2B was further confirmed by the peptide competition analysis. H3K9Suc (Figure 4B), a synthetic peptide that is identical to the N-terminus of histone H3 bearing a succinylated lysine 9 mark, is a known SIRT5 substrate. H3K9Suc was titrated into SIRT5 in the presence of probe 2B.
Figure 4 Labeling of SIRT5 by probe 2B. (A) Dose-dependent labeling of SIRT5 by probe 2B in recombinantly expressed, partially purified sirtuin mixture. SIRT1, SIRT2, SIRT3, SIRT5, and SIRT6 were mixed and incubated with 500 μM NAD^+ and increasing concentrations of 2B. The samples were incubated at 37 °C for 10 min and subjected to UV irradiation for 20 min, and then “click” conjugated to TAMRA-azide; (B) Chemical structure of H3K9Suc; (C) Peptide competition. The labeling of SIRT5 by probe 2B decreased with increasing concentrations of the competitor peptide, H3K9Suc.
A typical labeling experiment was performed as follows: in a 0.7 mL Eppendorf tube, purified recombinant human sirtuin (10 μM) was incubated with NAD^+ (500 μM) and activity-based probe at 37 °C for 10 min. […] Then, destained gel was analyzed with in-gel fluorescence scanning using a Biorad ChemiDoc MP imager (excitation 532 nm, 580 nm cut-off filter and 30 nm band-pass). […]

[2] = target: T2, SIRT5 (Homo sapiens, UniProt Q9NXA8); assay: Western blot of CPS1Ac in HEK293 cells; type: cell-based
T2 construct: endogenous in cells; host or cells: HEK293
T2 sequence (Q9NXA8 37-310): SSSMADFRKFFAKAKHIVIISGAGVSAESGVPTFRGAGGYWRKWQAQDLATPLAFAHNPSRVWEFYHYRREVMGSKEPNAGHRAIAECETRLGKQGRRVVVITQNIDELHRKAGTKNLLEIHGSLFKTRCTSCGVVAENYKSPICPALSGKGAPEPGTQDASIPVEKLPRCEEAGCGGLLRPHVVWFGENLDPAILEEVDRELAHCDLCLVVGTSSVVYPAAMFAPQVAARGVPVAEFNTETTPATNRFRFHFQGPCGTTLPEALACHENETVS
Description: The cellular activity of probes 2A and 2B was also investigated. […] SIRT5 is known to deacetylate and activate carbamoyl phosphate synthetase I (CPS1), which is the enzyme catalyzing the first step of the urea cycle. Cells were treated with either probe 2B or a known SIRT5 inhibitor, suramin, before the acetylation level of CPS1 (CPS1Ac) was examined.
The cell lysate was resolved on a 10% SDS-PAGE gel and transferred to Immobilon PVDF transfer membrane (Millipore, Burlington, MA, USA). The blot was blocked with 5% nonfat milk, probed with primary antibody targeting H3K9Ac (Sigma-Aldrich, St. Louis, MO, USA), H3 (Abcam, Cambridge, MA, USA), acetyllysine or CPS1 (Cell Signaling Technology, Beverly, MA, USA), washed with PBST, followed by incubation with anti-rabbit or anti-mouse HRP conjugated secondary antibody. Then, the signal was detected by SuperSignal West Pico Chemiluminescent substrate (Thermo Fisher Scientific, Rockford, IL, USA).

CPS1Ac level compared to control [2]: increased CPS1Ac level
Compound: C#CCCCC1(CCC(=O)N[C@@H](CCCCNC(=S)CCC(=O)O)C(=O)N[C@@H](C)C(=O)N[C@@H](C)C(=O)OC)N=N1 [Probe 2B]
labeling of SIRT5 in sirtuin mixture [1]: robust labeling of SIRT5 in a concentration-dependent fashion
